Literature values in publication PMC8513935.

Columns and labels:
[1] = log P octanol/water from commercial databases, averaged (the ESI); settings: Octanol (wet), 25 C
[2] = experimental, compiled by the authors from the literature (the ESI cites the sources)
[3] = derived by the authors as gas->solvent minus gas->water (a hypothetical dry solvent; the ESI), not a two-phase measurement

In the case of `C1CCNC1`, the log K of transfer, water to solvent [1] is given as 0.465 log10 K.
In the case of `CCCC`, the log K of transfer, water to solvent [1] is given as 2.89 log10 K, the log K of transfer, gas to solvent ([2]; 2-Methylpropan-1-ol, 25 C) is given as 1.49 log10 K and the log K of transfer, gas to solvent ([2]; 2-Methylpropan-2-ol, 25 C) is given as 1.52 log10 K. For the same compound, the log K of transfer, gas to solvent ([2]; 3-Methylbutan-1-ol, 25 C) was 1.48 log10 K, the log K of transfer, gas to solvent ([2]; Butan-1-ol, 25 C) was 1.37 log10 K and the log K of transfer, gas to solvent ([2]; Butanone, 25 C) was 1.69 log10 K. The log K of transfer, gas to solvent ([2]; CCl4, 25 C) was 1.96 log10 K, the log K of transfer, gas to solvent ([2]; Chlorobenzene, 25 C) was 1.7 log10 K and the log K of transfer, gas to solvent ([2]; Cyclohexane, 25 C) was 2.1 log10 K. For the same compound, the log K of transfer, gas to solvent ([2]; Di-n-butyl ether, 25 C) was 1.79 log10 K, the log K of transfer, gas to solvent ([2]; Ethanol, 25 C) was 1.4 log10 K and the log K of transfer, gas to solvent ([2]; Heptan-1-ol, 25 C) was 1.43 log10 K. For the same compound, the log K of transfer, gas to solvent ([2]; Hexadecane, 25 C) was 1.61 log10 K, the log K of transfer, gas to solvent ([2]; Hexane, 25 C) was 1.87 log10 K and the log K of transfer, gas to solvent ([2]; Methanol, 25 C) was 1.27 log10 K. The log K of transfer, gas to solvent ([2]; Octan-1-ol, 25 C) was 1.53 log10 K, the log K of transfer, gas to solvent ([2]; Pentan-1-ol, 25 C) was 1.49 log10 K and the log K of transfer, gas to solvent ([2]; Propan-1-ol, 25 C) was 1.45 log10 K. For the same compound, the log K of transfer, gas to solvent ([2]; Propan-2-ol, 25 C) was 1.49 log10 K, the log K of transfer, gas to solvent ([2]; Propanone, 25 C) was 1.56 log10 K and the log K of transfer, gas to solvent ([2]; Water, 25 C) was -1.52 log10 K.
For `CCCCC`, the log K of transfer, water to solvent ([3]; 1,2-Dichloroethane, 25 C) is listed as 3.69 log10 K, the log K of transfer, water to solvent ([3]; Acetone, 25 C) is listed as 3.68 log10 K and the log K of transfer, water to solvent ([3]; Acetonitrile, 25 C) is listed as 3.23 log10 K. The log K of transfer, water to solvent ([3]; Benzene, 25 C) was 3.89 log10 K, the log K of transfer, water to solvent ([3]; Butan-1-ol, 25 C) was 3.68 log10 K and the log K of transfer, water to solvent ([3]; Butan-2-ol, 25 C) was 3.64 log10 K. For the same compound, the log K of transfer, water to solvent ([3]; Butanone, 25 C) was 3.77 log10 K, the log K of transfer, water to solvent ([3]; Butyronitrile, 25 C) was 3.62 log10 K and the log K of transfer, water to solvent ([3]; CCl4, 25 C) was 4.06 log10 K. The log K of transfer, water to solvent ([3]; Chlorobenzene, 25 C) was 4.13 log10 K, the log K of transfer, water to solvent ([3]; Chloroform, 25 C) was 4.06 log10 K and the log K of transfer, water to solvent ([3]; Cyclohexane, 25 C) was 4.27 log10 K. For the same compound, the log K of transfer, water to solvent ([3]; Cyclohexanone, 25 C) was 3.68 log10 K, the log K of transfer, water to solvent ([3]; Di-n-butyl ether, 25 C) was 4.03 log10 K and the log K of transfer, water to solvent ([3]; Dichloromethane, 25 C) was 3.94 log10 K. The log K of transfer, water to solvent ([3]; Ethanol, 25 C) was 3.48 log10 K, the log K of transfer, water to solvent ([3]; Heptan-1-ol, 25 C) was 3.65 log10 K and the log K of transfer, water to solvent ([3]; Hexadecane, 25 C) was 3.86 log10 K. For the same compound, the log K of transfer, water to solvent ([3]; Hexan-1-ol, 25 C) was 3.67 log10 K, the log K of transfer, water to solvent ([3]; Hexane, 25 C) was 4.14 log10 K and the log K of transfer, water to solvent ([3]; Methanol, 25 C) was 3.36 log10 K. For the same compound, the log K of transfer, water to solvent ([3]; Octan-1-ol(dry), 25 C) was 3.65 log10 K, the log K of transfer, water to solvent ([3]; Pentan-1-ol, 25 C) was 3.64 log10 K and the log K of transfer, water to solvent ([3]; Perfluoroalkane, 25 C) was 3.25 log10 K. The log K of transfer, water to solvent ([3]; Propan-1-ol, 25 C) was 3.51 log10 K, the log K of transfer, water to solvent ([3]; Propan-2-ol, 25 C) was 3.55 log10 K and the log K of transfer, water to solvent ([3]; Tetrahydrofuran, 25 C) was 4.03 log10 K. The log K of transfer, water to solvent ([3]; Toluene, 25 C) was 4.01 log10 K, the log K of transfer, gas to solvent ([2]; 1,2-Dichloroethane, 25 C) was 1.99 log10 K and the log K of transfer, gas to solvent ([2]; Acetonitrile, 25 C) was 1.53 log10 K. The log K of transfer, gas to solvent ([2]; Benzene, 25 C) was 2.19 log10 K, the log K of transfer, gas to solvent ([2]; Butan-1-ol, 25 C) was 1.98 log10 K and the log K of transfer, gas to solvent ([2]; Butan-2-ol, 25 C) was 1.94 log10 K. For the same compound, the log K of transfer, gas to solvent ([2]; Butanone, 25 C) was 2.07 log10 K, the log K of transfer, gas to solvent ([2]; Butyronitrile, 25 C) was 1.92 log10 K and the log K of transfer, gas to solvent ([2]; CCl4, 25 C) was 2.36 log10 K. The log K of transfer, gas to solvent ([2]; Chlorobenzene, 25 C) was 2.43 log10 K, the log K of transfer, gas to solvent ([2]; Chloroform, 25 C) was 2.36 log10 K and the log K of transfer, gas to solvent ([2]; Cyclohexane, 25 C) was 2.57 log10 K. The log K of transfer, gas to solvent ([2]; Cyclohexanone, 25 C) was 1.98 log10 K, the log K of transfer, gas to solvent ([2]; Di-n-butyl ether, 25 C) was 2.33 log10 K and the log K of transfer, gas to solvent ([2]; Dichloromethane, 25 C) was 2.24 log10 K. The log K of transfer, gas to solvent ([2]; Ethanol, 25 C) was 1.78 log10 K, the log K of transfer, gas to solvent ([2]; Heptan-1-ol, 25 C) was 1.95 log10 K and the log K of transfer, gas to solvent ([2]; Hexadecane, 25 C) was 2.16 log10 K. For the same compound, the log K of transfer, gas to solvent ([2]; Hexan-1-ol, 25 C) was 1.97 log10 K, the log K of transfer, gas to solvent ([2]; Hexane, 25 C) was 2.44 log10 K and the log K of transfer, gas to solvent ([2]; Methanol, 25 C) was 1.66 log10 K. The log K of transfer, gas to solvent ([2]; Octan-1-ol, 25 C) was 1.95 log10 K, the log K of transfer, gas to solvent ([2]; Pentan-1-ol, 25 C) was 1.94 log10 K and the log K of transfer, gas to solvent ([2]; Perfluoroalkane, 25 C) was 1.55 log10 K. For the same compound, the log K of transfer, gas to solvent ([2]; Propan-1-ol, 25 C) was 1.81 log10 K, the log K of transfer, gas to solvent ([2]; Propan-2-ol, 25 C) was 1.85 log10 K and the log K of transfer, gas to solvent ([2]; Propanone, 25 C) was 1.98 log10 K. The log K of transfer, gas to solvent ([2]; Tetrahydrofuran, 25 C) was 2.33 log10 K, the log K of transfer, gas to solvent ([2]; Toluene, 25 C) was 2.3 log10 K and the log K of transfer, gas to solvent ([2]; Water, 25 C) was -1.7 log10 K.
For `Cc1ccncc1`, the log K of transfer, water to solvent ([3]; CCl4, 25 C) is listed as 0.84 log10 K, the log K of transfer, water to solvent ([3]; Hexadecane, 25 C) is listed as 0.02 log10 K and the log K of transfer, gas to solvent ([2]; CCl4, 25 C) is listed as 4.46 log10 K. For the same compound, the log K of transfer, gas to solvent ([2]; Hexadecane, 25 C) was 3.64 log10 K and the log K of transfer, gas to solvent ([2]; Water, 25 C) was 3.62 log10 K.
In the case of `CCCCCCCCCCCCCC`, the log K of transfer, water to solvent [1] is listed as 8 log10 K.
For `CCCCCCc1ccccc1`, the log K of transfer, water to solvent ([3]; Hexadecane, 25 C) is listed as 5.69 log10 K, the log K of transfer, water to solvent ([3]; Methanol, 25 C) is listed as 5.2 log10 K and the log K of transfer, gas to solvent ([2]; Hexadecane, 25 C) is listed as 5.72 log10 K. The log K of transfer, gas to solvent ([2]; Methanol, 25 C) was 5.23 log10 K and the log K of transfer, gas to solvent ([2]; Water, 25 C) was 0.03 log10 K.
For `CCCCCCCCl`, the log K of transfer, water to solvent ([3]; Hexadecane, 25 C) is given as 4.42 log10 K, the log K of transfer, gas to solvent ([2]; Hexadecane, 25 C) is given as 4.21 log10 K and the log K of transfer, gas to solvent ([2]; Water, 25 C) is given as -0.21 log10 K.
In the case of `C=CCCCCCCC`, the log K of transfer, water to solvent ([3]; Hexadecane, 25 C) is given as 5.58 log10 K, the log K of transfer, water to solvent ([3]; Octan-1-ol(dry), 25 C) is given as 5.34 log10 K and the log K of transfer, gas to solvent ([2]; Hexadecane, 25 C) is given as 4.07 log10 K. For the same compound, the log K of transfer, gas to solvent ([2]; Octan-1-ol, 25 C) was 3.83 log10 K and the log K of transfer, gas to solvent ([2]; Water, 25 C) was -1.51 log10 K.
For `c1ccc2ncccc2c1`, the log K of transfer, water to solvent ([3]; Chloroform, 25 C) is given as 2.78 log10 K, the log K of transfer, water to solvent ([3]; Hexadecane, 25 C) is given as 1.26 log10 K and the log K of transfer, gas to solvent ([2]; Chloroform, 25 C) is given as 6.98 log10 K. The log K of transfer, gas to solvent ([2]; Hexadecane, 25 C) was 5.45 log10 K and the log K of transfer, gas to solvent ([2]; Water, 25 C) was 4.2 log10 K.
